Assays:
Format in all cases: functional
Settings in all cases: read-out: Activity
[1] = test system: TK-10; experiment: Growth inhibition of human TK-10 cells assessed as cell growth at 10 uM incubated for 48 hrs by sulforhodamine B assay relative to control
[2] = test system: NCI-H522; experiment: Growth inhibition of human NCI-H522 cells assessed as cell growth at 10 uM incubated for 48 hrs by sulforhodamine B assay relative to control
[3] = test system: SK-MEL-5; experiment: Growth inhibition of human SK-MEL-5 cells assessed as cell growth at 10 uM incubated for 48 hrs by sulforhodamine B assay relative to control
[4] = test system: SK-MEL-28; experiment: Growth inhibition of human SK-MEL-28 cells assessed as cell growth at 10 uM incubated for 48 hrs by sulforhodamine B assay relative to control
[5] = test system: NCI/ADR-RES; experiment: Growth inhibition of human NCI/ADR-RES cells assessed as cell growth at 10 uM incubated for 48 hrs by sulforhodamine B assay relative to control
[6] = test system: NCI-H226; experiment: Growth inhibition of human NCI-H226 cells assessed as cell growth at 10 uM incubated for 48 hrs by sulforhodamine B assay relative to control
[7] = test system: A549; experiment: Growth inhibition of human A549/ATCC cells assessed as cell growth at 10 uM incubated for 48 hrs by sulforhodamine B assay relative to control
[8] = test system: SK-OV-3; experiment: Growth inhibition of human SK-OV-3 cells assessed as cell growth at 10 uM incubated for 48 hrs by sulforhodamine B assay relative to control
[9] = test system: RXF 393; experiment: Growth inhibition of human RXF 393 cells assessed as cell growth at 10 uM incubated for 48 hrs by sulforhodamine B assay relative to control
[10] = test system: NCI-H460; experiment: Growth inhibition of human NCI-H460 cells assessed as cell growth at 10 uM incubated for 48 hrs by sulforhodamine B assay relative to control
[11] = test system: RPMI-8226; experiment: Growth inhibition of human RPMI-8226 cells assessed as cell growth at 10 uM incubated for 48 hrs by sulforhodamine B assay relative to control
[12] = test system: SNB-75; experiment: Growth inhibition of human SNB-75 cells assessed as cell growth at 10 uM incubated for 48 hrs by sulforhodamine B assay relative to control
[13] = test system: SNB-19; experiment: Growth inhibition of human SNB-19 cells assessed as cell growth at 10 uM incubated for 48 hrs by sulforhodamine B assay relative to control
[14] = test system: PC-3; experiment: Growth inhibition of human PC-3 cells assessed as cell growth at 10 uM incubated for 48 hrs by sulforhodamine B assay relative to control
[15] = test system: EKVX; experiment: Growth inhibition of human EKVX cells assessed as cell growth at 10 uM incubated for 48 hrs by sulforhodamine B assay relative to control
[16] = test system: SR; experiment: Growth inhibition of human SR cells assessed as cell growth at 10 uM incubated for 48 hrs by sulforhodamine B assay relative to control
[17] = test system: OVCAR-3; experiment: Growth inhibition of human OVCAR-3 cells assessed as cell growth at 10 uM incubated for 48 hrs by sulforhodamine B assay relative to control
[18] = test system: UACC-62; experiment: Growth inhibition of human UACC-62 cells assessed as cell growth at 10 uM incubated for 48 hrs by sulforhodamine B assay relative to control
[19] = test system: HCT-15; experiment: Growth inhibition of human HCT-15 cells assessed as cell growth at 10 uM incubated for 48 hrs by sulforhodamine B assay relative to control
[20] = test system: NCI-H23; experiment: Growth inhibition of human NCI-H23 cells assessed as cell growth at 10 uM incubated for 48 hrs by sulforhodamine B assay relative to control
[21] = test system: KM12; experiment: Growth inhibition of human KM12 cells assessed as cell growth at 10 uM incubated for 48 hrs by sulforhodamine B assay relative to control
[22] = test system: IGROV-1; experiment: Growth inhibition of human IGROV-1 cells assessed as cell growth at 10 uM incubated for 48 hrs by sulforhodamine B assay relative to control
[23] = test system: NCI-H322M; experiment: Growth inhibition of human NCI-H322M cells assessed as cell growth at 10 uM incubated for 48 hrs by sulforhodamine B assay relative to control
[24] = test system: 786-0; experiment: Growth inhibition of human 786-0 cells assessed as cell growth at 10 uM incubated for 48 hrs by sulforhodamine B assay relative to control
[25] = test system: UACC-257; experiment: Growth inhibition of human UACC-257 cells assessed as cell growth at 10 uM incubated for 48 hrs by sulforhodamine B assay relative to control
[26] = test system: MOLT-4; experiment: Growth inhibition of human MOLT-4 cells assessed as cell growth at 10 uM incubated for 48 hrs by sulforhodamine B assay relative to control
[27] = test system: OVCAR-8; experiment: Growth inhibition of human OVCAR-8 cells assessed as cell growth at 10 uM incubated for 48 hrs by sulforhodamine B assay relative to control
[28] = test system: HL-60(TB); experiment: Growth inhibition of human HL-60(TB) cells assessed as cell growth at 10 uM incubated for 48 hrs by sulforhodamine B assay relative to control
[29] = test system: MDA-MB-435; experiment: Growth inhibition of human MDA-MB-435 cells assessed as cell growth at 10 uM incubated for 48 hrs by sulforhodamine B assay relative to control
[30] = test system: HT-29; experiment: Growth inhibition of human HT-29 cells assessed as cell growth at 10 uM incubated for 48 hrs by sulforhodamine B assay relative to control
[31] = test system: UO-31; experiment: Growth inhibition of human UO-31 cells assessed as cell growth at 10 uM incubated for 48 hrs by sulforhodamine B assay relative to control
[32] = test system: OVCAR-5; experiment: Growth inhibition of human OVCAR-5 cells assessed as cell growth at 10 uM incubated for 48 hrs by sulforhodamine B assay relative to control
[33] = test system: SN12C; experiment: Growth inhibition of human SN12C cells assessed as cell growth at 10 uM incubated for 48 hrs by sulforhodamine B assay relative to control
[34] = test system: HCT-116; experiment: Growth inhibition of human HCT-116 cells assessed as cell growth at 10 uM incubated for 48 hrs by sulforhodamine B assay relative to control
[35] = test system: SW-620; experiment: Growth inhibition of human SW-620 cells assessed as cell growth at 10 uM incubated for 48 hrs by sulforhodamine B assay relative to control
[36] = test system: BT-549; experiment: Growth inhibition of human BT-549 cells assessed as cell growth at 10 uM incubated for 48 hrs by sulforhodamine B assay relative to control
[37] = test system: T47D; experiment: Growth inhibition of human T47D cells assessed as cell growth at 10 uM incubated for 48 hrs by sulforhodamine B assay relative to control
[38] = test system: U-251; experiment: Growth inhibition of human U-251 cells assessed as cell growth at 10 uM incubated for 48 hrs by sulforhodamine B assay relative to control
[39] = test system: SK-MEL-2; experiment: Growth inhibition of human SK-MEL-2 cells assessed as cell growth at 10 uM incubated for 48 hrs by sulforhodamine B assay relative to control
[40] = test system: K562; experiment: Growth inhibition of human K562 cells assessed as cell growth at 10 uM incubated for 48 hrs by sulforhodamine B assay relative to control

SMILES | growth at 10 µM [1] [%] | growth at 10 µM [2] [%] | growth at 10 µM [3] [%] | growth at 10 µM [4] [%] | growth at 10 µM [5] [%] | growth at 10 µM [6] [%] | growth at 10 µM [7] [%] | growth at 10 µM [8] [%] | growth at 10 µM [9] [%] | growth at 10 µM [10] [%] | growth at 10 µM [11] [%] | growth at 10 µM [12] [%] | growth at 10 µM [13] [%] | growth at 10 µM [14] [%] | growth at 10 µM [15] [%] | growth at 10 µM [17] [%] | growth at 10 µM [18] [%] | growth at 10 µM [19] [%] | growth at 10 µM [20] [%] | growth at 10 µM [21] [%] | also measured
CC(=O)Nc1cc(CO[Si](C)(C)C(C)(C)C)cc(NC(=O)c2ccc(C(=O)Nc3cccc(NC(=O)CCCN(C)C)c3)cc2)c1 | 104 | 82 | 89 | 87 | 88 | 85 | 86 | 103 | 95 | 95 | 106 | 73 | 100 | 97 | 91 | 104 | 89 | 85 | 90 | 95 | growth at 10 µM [16]: 108%; growth at 10 µM [22]: 90%; growth at 10 µM [23]: 102%; growth at 10 µM [24]: 95%; growth at 10 µM [25]: 87%; growth at 10 µM [26]: 91%; growth at 10 µM [27]: 93%; growth at 10 µM [28]: 81%; growth at 10 µM [29]: 96%; growth at 10 µM [30]: 106%; growth at 10 µM [31]: 105%; growth at 10 µM [32]: 80%; growth at 10 µM [33]: 99%; growth at 10 µM [34]: 99%; growth at 10 µM [35]: 99%; growth at 10 µM [36]: 84%; growth at 10 µM [37]: 73%; growth at 10 µM [38]: 87%; growth at 10 µM [39]: 102%; growth at 10 µM [40]: 93%
CC(=O)Nc1cccc(NC(=O)c2ccc(C(=O)Nc3cc(CO)cc(NC(C)=O)c3)cc2)c1 | 98.8 | 89.1 | 103 | 111 | 113 | 97.1 | 108 | 103 | 106 | 112 | 92 | 94.9 | 112 | 101 | 112 | 126 | 101 | 104 | 105 | 111 | growth at 10 µM [16]: 104%; growth at 10 µM [22]: 110%; growth at 10 µM [23]: 115%; growth at 10 µM [24]: 112%; growth at 10 µM [25]: 101%; growth at 10 µM [26]: 92.7%; growth at 10 µM [27]: 106%; growth at 10 µM [28]: 96.9%; growth at 10 µM [29]: 105%; growth at 10 µM [30]: 109%; growth at 10 µM [31]: 100%; growth at 10 µM [32]: 108%; growth at 10 µM [33]: 106%; growth at 10 µM [34]: 105%; growth at 10 µM [35]: 104%; growth at 10 µM [36]: 116%; growth at 10 µM [37]: 86.2%; growth at 10 µM [38]: 111%; growth at 10 µM [39]: 88.1%; growth at 10 µM [40]: 104%
CC(=O)Nc1cc(CCl)cc(NC(=O)c2ccc(C(=O)Nc3cccc(NC(=O)CCCN(C)C)c3)cc2)c1 | 106 | 104 | 93 | 96 | 100 | 93 | 101 | 114 | 96 | 110 | 116 | 82 | 106 | 104 | 86 | 113 | 101 | 93 | 93 | 104 | growth at 10 µM [16]: 125%; growth at 10 µM [22]: 116%; growth at 10 µM [23]: 108%; growth at 10 µM [24]: 107%; growth at 10 µM [25]: 100%; growth at 10 µM [26]: 102%; growth at 10 µM [27]: 98%; growth at 10 µM [28]: 101%; growth at 10 µM [29]: 100%; growth at 10 µM [30]: 104%; growth at 10 µM [31]: 98%; growth at 10 µM [32]: 92%; growth at 10 µM [33]: 105%; growth at 10 µM [34]: 106%; growth at 10 µM [35]: 107%; growth at 10 µM [36]: 106%; growth at 10 µM [37]: 95%; growth at 10 µM [38]: 100%; growth at 10 µM [39]: 116%; growth at 10 µM [40]: 113%
CCN(CC)CC(=O)Nc1ccc(C(=O)Nc2cc(CO)cc(NC(C)=O)c2)cc1 | 99.2 | 105 | 103 | 116 | 110 | 95.8 | 95.7 | 107 | 110 | 109 | 126 | 110 | 98 | 116 | 104 | 116 | 97 | 100 | 104 | 107 | growth at 10 µM [22]: 129%; growth at 10 µM [23]: 105%; growth at 10 µM [24]: 97.4%; growth at 10 µM [25]: 103%; growth at 10 µM [26]: 120%; growth at 10 µM [27]: 107%; growth at 10 µM [28]: 107%; growth at 10 µM [29]: 96.3%; growth at 10 µM [30]: 110%; growth at 10 µM [31]: 97.8%; growth at 10 µM [32]: 107%; growth at 10 µM [33]: 103%; growth at 10 µM [34]: 109%; growth at 10 µM [35]: 109%; growth at 10 µM [36]: 112%; growth at 10 µM [37]: 99.1%; growth at 10 µM [38]: 108%; growth at 10 µM [39]: 107%
CC(=O)Nc1cc(CO)cc(NC(=O)c2ccc(C(=O)NCCCN3CCOCC3)cc2)c1 | 91.9 | 91.1 | 102 | 102 | 113 | 95.6 | 107 | 106 | 108 | 111 | 95.3 | 90.2 | 107 | 100 | 115 | 118 | 101 | 103 | 100 | 113 | growth at 10 µM [16]: 94.1%; growth at 10 µM [22]: 110%; growth at 10 µM [23]: 105%; growth at 10 µM [24]: 101%; growth at 10 µM [25]: 103%; growth at 10 µM [26]: 94.4%; growth at 10 µM [27]: 103%; growth at 10 µM [28]: 107%; growth at 10 µM [29]: 103%; growth at 10 µM [30]: 115%; growth at 10 µM [31]: 100%; growth at 10 µM [32]: 103%; growth at 10 µM [33]: 104%; growth at 10 µM [34]: 105%; growth at 10 µM [35]: 102%; growth at 10 µM [36]: 94.2%; growth at 10 µM [37]: 108%; growth at 10 µM [38]: 99.5%; growth at 10 µM [39]: 94.3%; growth at 10 µM [40]: 103%
